From patent publication US20060193880A1, “Method and compositions for attracting mosquitoes employing (R)-(+)-isomers of 1-alkyn-3-ols” (Bedoukian Research, Inc., priority 2005, published 2006)

Assays:
Assay type in all cases: in vivo
mosquitoes [1] = assay: Mosquito trap catch, Mosquito Magnet Liberty traps, Danbury, Conn.; settings: porous frit, 1 gram, releasing approx. 1 mg/h, rotated twice among four traps over eight days
Protocol: Tests were conducted with the Mosquito Magnet Liberty model manufactured by American Biophysics Corp. The traps were spaced 65-70 feet apart at the edge of a wetland in Danbury, Conn., at least 25 feet from any buildings. 1 gram of test chemical was added to a clean porous frit of the type normally used in the trap, releasing approximately 1 mg/h. (R)-(+)-1-octyn-3-ol, (S)-(-)-1-octyn-3-ol, (R)-(-)-1-octen-3-ol, and racemic 1-octen-3-ol were rotated twice among four traps over eight days, and the results for each attractant were compared.

mosquitoes [2] = assay: Mosquito trap catch with wax lure and CO2, model 1012 traps, Connecticut; settings: wax lure, approx. 0.17 mg/hr release, CO2 approx. 140 ml/minute, average of four three-day cycles
Protocol: The following tests were conducted in Connecticut in September 2004. Mosquito traps model 1012 manufactured by John W. Hock Company in Gainesville, Florida were used in these experiments. The traps use a stream of CO2 directed in the vicinity of a collection bag, with a fan used to blow mosquitoes into the bag. The light supplied with the trap was turned off. The traps were spaced 65-70 feet apart at the edge of a wetland in Danbury, Conn., at least 25 feet from any buildings. The (R) and (S)-1-octyn-3-ol was incorporated into a wax lure of the type manufactured by BioSensory, Inc. and placed near a stream of CO2 which was being released at a rate of approximately 140 ml/minute. The traps were operated from approximately 4:00 PM until 9:00 AM the next day. Daytime temperatures were 70-75° F. during the trials. Average weight loss from the wax lures during the test was approximately 4 mg/day, or 0.17 mg/hr. Three traps were used, with either (R)-1-Octyn-3-ol, (S)-1-Octyn-3-ol, or no treatment, rotated among the traps over a three-day cycle. Four complete cycles were performed and the results for each treatment were averaged.
The traps with no attractant were considered as the baseline catch of mosquitoes and the results of the catches with the isomers were compared to this baseline value.

mosquitoes [3] = assay: Mosquito trap catch, Mosquito Magnet Pro units, Florida; settings: release rates approx. 60 mg/day and 500 mg/day; 10-18 test days
Protocol: In tests performed in Florida using Mosquito Magnet Pro units, (R)-(+)-1-octyn-3-ol was compared with racemic 1-octyn-3-ol and (S)-(-)-1-octyn-3-ol at release rates of approximately 60 mg/day and 500 mg/day. The lures were rotated among the traps and compared to the same traps with no lure, all relative to a control trap. The (S)-(-)-1-octyn-3-ol caught an average of 39% more mosquitoes relative to the control than the traps when no lure was used (18 test days), the racemic 1-octyn-3-ol caught an average of 240% more mosquitoes than did no lure (10 test days), and the (R)-(+)-1-octyn-3-ol caught an average of 334% more mosquitoes than the traps with no lure (16 test days).

| Structure (SMILES) | less mosquitoes caught than the trap with the 50:50 racemic mixture of 1-octen-3-ol (mosquitoes [1]) | more mosquitoes captured than the baseline (traps with no attractant) (mosquitoes [2]) | average more mosquitoes caught than the traps with no lure, relative to a control trap (mosquitoes [3]) | more mosquitoes caught than the trap with the 50:50 racemic mixture of 1-octen-3-ol (mosquitoes [1]) |
| --- | --- | --- | --- | --- |
| C#C[C@@H](O)CCCCC [(S)-(-)-1-octyn-3-ol] | 23% | 65% | 39% |  |
| C#CC(O)CCCCC (racemic) [racemic 1-octyn-3-ol, 1-octyn-3-ol] |  |  | 240% |  |
| C#C[C@H](O)CCCCC [(R)-(+)-1-octyn-3-ol] |  | 120% | 334% | 34% |
